Measurements: publication PMC3842668, “Dual-acting stapled peptides target both HIV-1 entry and assembly” (Retrovirology, 2013)
Where a SMILES comes first, the peptide text is derived from it. Bridges are numbered along the chain shown (N, C = ends). Where no end group is shown, it is not given here. [ ]: non-standard residue; d: D form. R8 = C=CCCCCCC[C@@](C)(N)C(=O)O; S5 = C=CCCC[C@](C)(N)C(=O)O

Columns and labels:
[1] = not told; cited from earlier work
Source text: In 2005, a 12-mer peptide (CAI), identified by phage-display, was reported to disrupt both immature- and mature-like particles in vitro by targeting the C-terminal domain (CTD) of HIV-1 CA [21]. […] Subsequently, we converted CAI to a cell-penetrating peptide (NYAD-1) by using a hydrocarbon stapling technique and confirmed its binding to the CTD [24]. NYAD-1, which is an i,i + 4 staple peptide, disrupts the formation of both immature- and mature-like particles in cell-free and cell-based assembly s ... || We previously reported that an i,i + 4 stapled peptide, NYAD-1, penetrates cells and disrupts virus assembly in both in vitro and cell-based assays. […] In addition, direct binding analyses by ITC and NMR confirmed that NYAD-1 binds to the CTD of CA. These findings motivated us to expand the scope of our drug discovery effort on hydrocarbon-stapled peptides as assembly and maturation inhibitors to an i,i + 7 series of stapled peptides. This approach allowed us to explore res ...

HIV-1 CA [2] = target: T1, HIV-1 CA (Human immunodeficiency virus type 1 group M subtype B, UniProt P12493); test: In vitro CA assembly, negative-stain electron microscopy; type: biochemical; settings: 50 μΜ CA, 0.25- to 3.0-fold molar equivalent of peptide
T1 construct: Wild-type HIV-1 CA was overexpressed and purified as previously described; made in house
Method: Briefly, stock proteins were adjusted to the appropriate concentration (25 μΜ for Gag protein or 50 μΜ for CA protein) with the Na2HPO4 buffer at pH 8.0. […] Negative staining was used to check the assembly. Carbon-coated copper grids (200 mesh size; EM Sciences) were treated with 20 μl of poly-L-lysine (1 mg/ml; Sigma) for 2 min. 20 μl of reaction solution was placed onto the grid for 2 min. Spotted grids were then stained with 30 μl of uranyl acetate solution for 2 min. Excess stain was removed, and grids were air-dried. Specimens were examined with a TECNAI G^2 electron microscope (FEI, OR, USA).

HIV-1 CA [3] = target: T1, HIV-1 CA; test: Turbidity-based in vitro CA assembly assay; type: biochemical; settings: turbidity at 350 nm
Method: The ability of stapled peptides to disrupt CA-CA interactions was also assessed using a turbidity-based in vitro CA assembly assay. This assay is based on the observation that the turbidity of a CA-containing solution increases in proportion to the extent of assembly.
Wild-type HIV-1 CA was overexpressed and purified as previously described. […] Turbidity assays were carried out in triplicate using a Beckman spectrophotometer at a wavelength of 350 nm to monitor HIV-1 in vitro assembly conducted at ambient temperatures. Protein samples were prepared in an assembly buffer [50 mM NaPO4 pH 8.0]. In vitro assembly reactions were prepared with 250 μl of assembly buffer containing 60 μM protein. To catalyze CA assembly 250 μl of an assembly buffer containing 5M NaCl was added. The solution was mixed by agitation and transferred a cuvette for a total delay of 20 seconds. Assembly was monitored every 10 sec for the first min and every min thereafter for a total 10 min. Assembly reactions with stapled peptides were incubated in the assembly buffer for 10 min and then centrifuged for 1 min to separate any insoluble fractions before catalyzing assembly.

HIV-1 pNL4-3 = test: Virus assembly and release assay, Gag processing; type: cell-based; settings: 293T cells transfected with pNL4-3, peptide for 16–20 h, ratio of Pr55Gag to p24
Method: This inhibition was specific to HIV-1 as the release of another lentivirus, equine infectious anemia virus (EIAV), was not inhibited. In this study we investigated whether i,i + 7 stapled CAI-derived peptides have any effect on virus release. 293T cells were transfected with the full-length HIV-1 molecular clone pNL4-3, treated with stapled peptides for 16–20 h, and metabolically labeled with [^35S]Met/Cys. The cell- and virus-associated proteins were immunoprecipitated with HIV-Ig.
Figure 6 i + 7 stapled peptides have no effect on HIV-1 release, but impair Gag processing. […] Cells were metabolically labeled with [^35S]Met/Cys for 2 h. Cells were lysed and virions were collected by ultracentrifugation. Cell and virus lysates were immunoprecipitated with HIV-Ig and subjected to SDS-PAGE. Protein band intensities were quantified by phosphorimager analysis, and HIV-1 release was calculated as the amount of virion-associated p24 relative to total (cell- plus virion-associated) Gag. (b) Accumulation of unprocessed Gag in cells was measured by calculating the ratio of Pr55^Gag to p24 in cells. P values were calculated by Student’s t-test, with P < 0.05 considered significant. N = 3, ± SD.
293T cells, plated at 3 × 10^5 cells/well in 12 well plates, were transfected with the HIV-1 molecular clone pNL4-3 [69]. […] One day posttransfection, cells were metabolically labeled with [^35S]Met/Cys for 2 h. The labeled virions were pelleted in an ultracentrifuge, and the virus and cell lysates were immunoprecipitated with pooled sera from HIV-1-infected patients (HIV-Ig, obtained from the ARP) and subjected to SDS-PAGE. Protein band intensities were quantified by phosphorimager analysis, and virus release was calculated as the amount of virion-associated Gag as a fraction of total (cell- plus virion-associated) Gag synthesized during the metabolic labeling period. Accumulation of Pr55^Gag in cells was measured by calculating the ratio of Pr55^Gag to p24 (CA).

HIV-1 pNL4-3 (WT) = type: cell-based
WT HIV-1 (NL4-3) = type: cell-based
[4] = tested on: HIV-1 V120Q/A327P Env mutant; type: cell-based
WT NL4-3 [5] = test: Spreading virus replication in Jurkat T-cell line, RT activity, WT; type: cell-based, HIV-1
WT NL4-3 [6] = test: Virus replication in PBMC, WT; type: cell-based, HIV-1; settings: PBMC from three donors, 30 μM peptide, RT activity
V120Q/A327P mutant = test: Virus replication in PBMC, Env mutant; type: cell-based, HIV-1; settings: PBMC from three donors, 30 μM peptide, RT activity
[7] = tested on: N-terminal and C-terminal V3 loop peptides; test: ITC binding to N-terminal and C-terminal V3 loop peptides; set-up: species or system HIV-1; settings: overlapping 15-mer V3 peptides
Method: (§1) We also used ITC to measure the binding affinity of the stapled peptides to full-length cyclic V3 loop peptide.
(§2) Full-length V3 peptide (Cat# 1840), cyclic V3 peptide (Cat# 1837) and 15-mer overlapping V3 peptides (Cat# 1832, 6282, 6283, 6284, 6285, 6287, 6288, 6289, 6290 and 6291, for amino acid sequence see HIV-1 Subtype B (MN) Env Peptides - Complete Set Cat# 6451) were obtained through the NIH ARP.
(§3) For forward titration, 90 μM full-length V3 peptide, full-length cyclic V3 peptide or 90 μM 15-mer V3 peptides were titrated into 4.5 μM of stapled or linear peptides. Reference measurements were performed by titrating 90 μM full-length V3 peptide, full-length cyclic V3 peptide or 15-mer V3 peptide into buffer without peptide. For reverse titration, 90 μM stapled peptide was titrated into 4.5 μM full-length V3 peptide, full-length cyclic V3 peptide or […]. Reference measurements were performed by titrating 90 μM stapled peptide into buffer without peptide.

[8] = target: tip of V3 loop (15-mer V3 tip peptide); test: ITC binding to 15-mer V3 tip peptide; set-up: species or system HIV-1; settings: 90 μM 15-mer V3 tip peptide titrated into 4.5 μM peptide, single-site model
Method: as §1, §2, §3

Row | Molecule | CC 50 (μM ± SD) in MT-2 (MT-2 cells) [µM] | cell permeability (in words) [1] | Effect on CA tube assembly, EM (in words) (HIV-1 CA [2]) | Effect on CA assembly, turbidity (in words) (HIV-1 CA [3]; 50 mM NaPO4 pH 8.0) | initial rate of CA assembly (HIV-1 CA [3]; compound:CA ratio 2:1, mean ± standard deviation from three experiments, DMSO control 216 ± 6.23) [mOD/min] | Accumulation of cell-associated Pr55Gag (in words) (HIV-1 pNL4-3) | reduction in infectivity of virions produced from treated cells (HIV-1 pNL4-3 (WT)) | fold reduction of virus infectivity, WT (WT HIV-1 (NL4-3)) [fold] | fold reduction of virus infectivity, V120Q/A327P double mutant [4] | virus replication (in words) (WT NL4-3 [5]; Jurkat cells transfected with pNL4-3 (WT), 37.5 μM peptide) | virus replication (in words) (WT NL4-3 [5]; Jurkat cells transfected with pNL4-3, 25 μM peptide) | virus replication (in words) (WT NL4-3 [5]; Jurkat cells transfected with pNL4-3, 50 μM peptide) | virus replication (in words) (WT NL4-3 [6]) | virus replication (in words) (V120Q/A327P mutant) | binding to N-terminal and C-terminal V3 loop peptides (in words) [7] | Kd [8] [µM] | Cell penetration (in words) (293T cells)
1 | ITFEDLLDYYGP-NH2 [CAI, reference compound] | >100 | lack of cell permeability | – | – | – | – | – | – | – | – | – | – | – | – | – | – | –
2 | CC[C@H](C)[C@H](NC(C)=O)C(=O)N[C@@H](CO)C(=O)N[C@@H](Cc1ccccc1)C(=O)N[C@]1(C)CCCCCCC=CCCC[C@@](C)(C(=O)N[C@@H](CCC(=O)O)C(=O)N[C@@H](CO)C(=O)NCC(=O)N[C@@H](CO)C(N)=O)NC(=O)[C@H](Cc2ccc(O)cc2)NC(=O)[C@H](Cc2ccc(O)cc2)NC(=O)[C@H](CC(=O)O)NC(=O)[C@H](CC(C)C)NC(=O)[C@H](CC(C)C)NC(=O)[C@H](CCC(=O)O)NC1=O [NYAD-36] (Ac-ISF[R8]ELLDYY[S5]ESGS-NH2; staple 4-11) | >189.4 | – | either severely damaged or disintegrated | reduced the extent of CA assembly in a dose-dependent manner | 158 ± 24.71 | modest accumulation of cell-associated Pr55^Gag | four-fold | > 10 | ~ 2.5 fold | significantly delayed | virus replication peaked approximately six days posttransfection | no replication was detected | strongly inhibited replication of WT NL4-3 in PBMC | showed some antiviral activity against the V120Q/A327P mutant | neither N-terminal nor C-terminal V3 loop peptides bind | 15.1 ± 3.78 | penetrate cells less efficiently than NYAD-1
